Article PMC9925730, “Controlled sequential in situ self-assembly and disassembly of a fluorogenic cisplatin prodrug for cancer theranostics” (Nature Communications, 2023)
Several values for one entry are separate records, joined by “and”; a condition that tells them apart may be missing. Identical values can stand only once.

Experiments:
Assay type in all cases: biochemical
ALP [1] = assay: Dephosphorylated efficacy of P-CyPt towards varying concentrations of ALP (NIR fluorescence); settings: for Normalized FL intensity: ALP 0 U/L; for normalized signal over time (section 'Supplementary Fig. 2c'), mean of 3: 250 μM
ALP [2] = assay: as above; settings: 250 μM
ALP [3] = molecular target: T1, ALP (Bos taurus, UniProt P19111); assay: Sensitivity of P-CyPt towards ALP (detection limit); settings: for Normalized FL intensity at 710 nm (individual replicates) / Normalized FL intensity at 710 nm, mean: Supplementary Fig. 6b
T1 construct: Alkaline phosphatase from bovine; purchased Sigma-Aldrich; host or cells: bovine intestinal mucosa (tissue-derived)
T1 sequence (P19111 20-506 limits assumed): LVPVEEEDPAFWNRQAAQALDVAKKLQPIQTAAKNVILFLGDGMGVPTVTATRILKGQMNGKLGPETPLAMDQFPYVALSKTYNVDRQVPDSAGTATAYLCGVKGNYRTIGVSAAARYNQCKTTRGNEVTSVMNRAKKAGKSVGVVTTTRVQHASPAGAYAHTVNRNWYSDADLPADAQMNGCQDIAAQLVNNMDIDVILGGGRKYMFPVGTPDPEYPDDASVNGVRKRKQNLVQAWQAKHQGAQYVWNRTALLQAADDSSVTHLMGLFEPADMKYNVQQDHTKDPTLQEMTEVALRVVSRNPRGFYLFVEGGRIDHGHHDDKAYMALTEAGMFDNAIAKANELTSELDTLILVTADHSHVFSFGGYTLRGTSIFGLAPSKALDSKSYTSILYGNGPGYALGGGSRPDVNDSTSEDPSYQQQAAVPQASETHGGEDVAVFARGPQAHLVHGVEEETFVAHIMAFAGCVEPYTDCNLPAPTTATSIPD

CC1(C)C(/C=C/C2=C3Oc4cc(OP(=O)(O)O)c(Cl)cc4C=C3CCC2)=[N+](CCCNC(=O)[C@@H](Cc2ccccc2)NC(=O)[C@@H](Cc2ccccc2)NC(=O)CCC(=O)[O][Pt]([NH2])([NH2])([OH])([Cl])[Cl])c2ccccc21 [P-CyPt]
Normalized FL intensity (ALP [1]; 10 min, mean of 3 samples): 1.035 | Normalized FL intensity (ALP [1]; 10 min, single samples): 1.083 and 1.017 and 1.004 | Normalized FL intensity (ALP [1]; 12 min, mean of 3 samples): 1.029 | Normalized FL intensity (ALP [1]; 12 min, single samples): 1.083 and 1.004 and 1 | Normalized FL intensity (ALP [1]; 14 min, mean of 3 samples): 1.014 | Normalized FL intensity (ALP [1]; 14 min, single samples): 1.065 and 0.9957 and 0.9826 | Normalized FL intensity (ALP [1]; 16 min, mean of 3 samples): 1.013 | Normalized FL intensity (ALP [1]; 16 min, single samples): 1.057 and 0.9957 and 0.987 | Normalized FL intensity (ALP [1]; 18 min, mean of 3 samples): 1.0087 | Normalized FL intensity (ALP [1]; 18 min, single samples): 1.048 and 1 and 0.9783 | Normalized FL intensity (ALP [1]; 20 min, mean of 3 samples): 1.016 | Normalized FL intensity (ALP [1]; 20 min, single samples): 1.039 and 0.9913 and 1.017 | Normalized FL intensity (ALP [1]; 22 min, mean of 3 samples): 1.023 | Normalized FL intensity (ALP [1]; 22 min, single samples): 1.104 and 0.9913 and 0.9739 | Normalized FL intensity (ALP [1]; 24 min, mean of 3 samples): 1 | Normalized FL intensity (ALP [1]; 24 min, single samples): 1.039 and 0.9957 and 0.9652 | Normalized FL intensity (ALP [1]; 26 min, mean of 3 samples): 1.0029 | Normalized FL intensity (ALP [1]; 26 min, single samples): 1.035 and 1.004 and 0.9696 | Normalized FL intensity (ALP [1]; 28 min, mean of 3 samples): 1.014 | Normalized FL intensity (ALP [1]; 28 min, single samples): 1.026 and 0.9913 | Normalized FL intensity (ALP [1]; 30 min, mean of 3 samples): 1.00E+00 | Normalized FL intensity (ALP [1]; 30 min, single samples): 1.04E+00 and 9.91E-01 and 0.9783 | normalized signal over time (section 'Supplementary Fig. 2c'), mean of 3 (ALP [1]; time 200 min): 0.9941 | normalized signal over time (section 'Supplementary Fig. 2c'), mean of 3 (ALP [1]; time 220 min): 0.9946 | normalized signal over time (section 'Supplementary Fig. 2c'), mean of 3 (ALP [1]; time 240 min): 0.9956 | normalized signal over time (section 'Supplementary Fig. 2c'), mean of 3 (ALP [1]; time 300 min): 0.9969 | normalized signal over time (section 'Supplementary Fig. 2c'), mean of 3 (ALP [1]; time 340 min): 0.9978 | normalized signal over time (section 'Supplementary Fig. 2c'), mean of 3 (ALP [1]; time 360 min): 0.9982 | normalized signal over time (section 'Supplementary Fig. 2c'), mean of 3 (ALP [1]; time 380 min): 0.998 | normalized signal over time (section 'Supplementary Fig. 2c'), mean of 3 (ALP [1]; time 400 min): 0.9983 | normalized signal over time (section 'Supplementary Fig. 2c'), mean of 3 (ALP [1]; time 420 min): 0.9984 | normalized signal over time (section 'Supplementary Fig. 2c'), mean of 3 (ALP [1]; time 460 min): 0.9985 | normalized signal over time (section 'Supplementary Fig. 2c'), mean of 3 (ALP [1]; time 480 min): 0.9989 | normalized signal over time (section 'Supplementary Fig. 2c'), mean of 3 (ALP [1]; time 500 min): 0.9986 | normalized signal over time (section 'Supplementary Fig. 2c'), mean of 3 (ALP [1]; time 520 min): 0.9984 | normalized signal over time (section 'Supplementary Fig. 2c'), mean of 3 (ALP [1]; time 540 min): 0.9984 | normalized signal over time (section 'Supplementary Fig. 2c'), mean of 3 (ALP [1]; time 560 min): 0.9984 | normalized signal over time (section 'Supplementary Fig. 2c'), mean of 3 (ALP [1]; time 580 min): 0.9984 | normalized signal over time (section 'Supplementary Fig. 2c'), mean of 3 (ALP [1]; time 600 min): 0.9984 | normalized signal over time (section 'Supplementary Fig. 2c'), mean of 3 (ALP [2]; time 260 min): 0.996 | normalized signal over time (section 'Supplementary Fig. 2c'), mean of 3 (ALP [2]; time 280 min): 0.9965 | normalized signal over time (section 'Supplementary Fig. 2c'), mean of 3 (ALP [2]; time 320 min): 0.9972 | normalized signal over time (section 'Supplementary Fig. 2c'), mean of 3 (ALP [2]; time 440 min): 0.9986 | Normalized FL intensity at 710 nm (individual replicates) (ALP [3]; ALP concentration 0 U/L): 0.8554 and 0.8726 and 0.8742 | Normalized FL intensity at 710 nm, mean (ALP [3]; ALP concentration 0 U/L): 0.867 | Normalized FL intensity at 710 nm (individual replicates) (ALP [3]; ALP concentration 0.5 U/L): 0.9653 and 1.0053 and 1.0982 | Normalized FL intensity at 710 nm, mean (ALP [3]; ALP concentration 0.5 U/L): 1.023 | Normalized FL intensity at 710 nm (individual replicates) (ALP [3]; ALP concentration 1 U/L): 1.1743 and 1.1873 and 1.137 | Normalized FL intensity at 710 nm, mean (ALP [3]; ALP concentration 1 U/L): 1.166 | Normalized FL intensity at 710 nm (individual replicates) (ALP [3]; ALP concentration 2 U/L): 1.4406 and 1.5171 and 1.5718 | Normalized FL intensity at 710 nm, mean (ALP [3]; ALP concentration 2 U/L): 1.510 | Normalized FL intensity at 710 nm (individual replicates) (ALP [3]; ALP concentration 5 U/L): 2.2381 and 2.3195 and 2.3579 | Normalized FL intensity at 710 nm, mean (ALP [3]; ALP concentration 5 U/L): 2.305 | Normalized FL intensity at 710 nm (individual replicates) (ALP [3]; ALP concentration 10 U/L): 3.458 and 3.6281 and 3.6545 | Normalized FL intensity at 710 nm, mean (ALP [3]; ALP concentration 10 U/L): 3.580 | Normalized FL intensity at 710 nm (individual replicates) (ALP [3]; ALP concentration 15 U/L): 4.5389 and 4.8786 and 4.9735 | Normalized FL intensity at 710 nm, mean (ALP [3]; ALP concentration 15 U/L): 4.797 | Normalized FL intensity at 710 nm (individual replicates) (ALP [3]; ALP concentration 20 U/L): 5.7617 and 5.8661 and 6.3529 | Normalized FL intensity at 710 nm, mean (ALP [3]; ALP concentration 20 U/L): 5.994 | detection limit for ALP (ALP [3]; P-CyPt 10 μM, 30 min, 3σ/k method): ~ 0.098 U/L
